These results are taken from US7579336B2, “Pharmaceutical composition comprising temozolomide ester” (Tian Jin Tasly Group Co., Ltd., priority 2004, dated 2009).

Values after ≈ are worked out from the molar mass of the structure shown. Like-named read-outs stand apart in the source and are kept apart here. Marks after values point to notes of the source that are not given here.

For series [1], the system named is MV3 (human melanoma cells). The experiment in a line: MTT reduction assay, killing tumor cells. The class given is cell-based. As to conditions: four days culture with drug. As for the experimental part:
(§1) The experiment was carried out for methyl TMZ-8-carboxylate, butyl TMZ-8-carboxylate, n-hexyl TMZ-8-carboxylate, and TMZ acid which had been known as an active compound against carcinoma, and used fluorouracil injection (10 ml:0.25 g, purchased from Xudong Pharmaceutical Co. Ltd, the batch number was 000612) as the drug for the positive control. Cancer cell strains used in experiments included HCT-8(human colon carcinoma cells), A549 (human lung carcinoma cells), MCF-7(human breast carcinoma cells), Bel7402 (human liver carcinoma cells), BGC-823(human gastric carcinoma cells) and MV3 (human melanoma cells).
(§2) TMZ acid is white powder; Methyl TMZ-8-carboxylate, butyl TMZ-8-carboxylate and n-hexyl TMZ-8-carboxylate, white scaly crystals, manufactured by the method described in Example 2; Fluorouracil injection (10 ml: 0.25 g): as drug for the positive control, manufactured by Xudong Pharmaceutical Co. Ltd, the batch number 000612; RPMI: produced by GIBCO; Calf serum: manufactured by Sijiqing bio-engineer material Co. Ltd, Hangzhou; and MTT: produced by Bebco.
(§3) All cancer cell strains of HCT-8, A549, MCF-7, Bel-7402, BGC-823, MV3 and B16 was fostered and transferred of culture by Institute of Materia Medica, Chinese Academy of Medical Sciences and Peking Union Medical College.
(§4) Tetrazolium salt [3-(4,5-dimethylthiazol-2-yl)-2,5-diphenyl-tetrazolium bromide, MTT] reduction assay was used. All the well-grown carcinoma cells were collected, prepared intol 1×10^4/ml cell suspension with the RPMI 1640 culture solution containing 10% calf serum, and inoculated in 96-well culture plate, with 100 uL per well (containing 1000 cancer cells). After 24 hours of culture in 5% CO2 thermos incubator at temperature of 37° C. the drugs were added. Blank control group was established and the drug for the positive control was Fluorouracil. The tested drugs were divided into five groups at different concentrations, each concentration was tested for three times parallelly, and placed in 5% CO2 thermos incubator at temperature of 37° C. to culture for four days. The culture solution was discarded and 100 uL of MTT solution (0.4 mg/ml, prepared with RPMI 1640) was added per well to continue to culture for four hours at temperature of 37° C. The supernate was discarded and 150 uL of DMSO was added to dissolve Fomazan granules. After slight agitation, the OD value was measured with BIORAD 550 enzyme labeling instrument at the measuring wavelength of 540 nm and the reference wavelength of 450 nm.
(§5) Data of cell inhibiting rate was then plotted vs. the concentration of drugs to obtain the dose-reaction curve, by which 50% inhibitory concentration IC50 was calculated (see Table 1 and Table 2).
On the technique in general: Tetrazolium dyes change colour on reduction, which living cells bring about.

The test system of series [2] is HCT-8(human colon carcinoma cells). The experiment in a line: MTT reduction assay, killing tumor cells. The format is cell-based. The settings on record: HCT-8 cells, four days culture with drug. As for the experimental part: as §1, §2, §3, §4, §5
Series [3] has as its system A549 (human lung carcinoma cells). The experiment in a line: MTT reduction assay, killing tumor cells. The class given is cell-based. As to conditions: four days culture with drug. As for the experimental part: as §1, §2, §3, §4, §5
In series [4] the test system is MCF-7(human breast carcinoma cells). The series is described as follows: MTT reduction assay, killing tumor cells. The format is cell-based. The settings on record: MCF-7 cells, four days culture with drug. As for the experimental part: as §1, §2, §3, §4, §5
Series [5] concerns Bel7402 (human liver carcinoma cells). The series is described as follows: MTT reduction assay, killing tumor cells. The class given is cell-based. As to conditions: Bel-7402 cells, four days culture with drug. As for the experimental part: as §1, §2, §3, §4, §5
The test system of series [6] is BGC-823(human gastric carcinoma cells). The experiment in a line: MTT reduction assay, killing tumor cells. The settings on record: BGC-823 cells, four days culture with drug. The format is cell-based. As for the experimental part: as §1, §2, §3, §4, §5
For series [7] the following is noted: studies published in WO0057867; cited from earlier work.
The subject of series [8] is HCT-8, A549, MCF-7, Bel7402, BGC-823 and MV3 cancer cell strains. The series is described as follows: MTT reduction assay, summary over the selected cell strains. The format is cell-based. The settings on record: Homo sapiens; summary of Table 1 over all selected cell strains; read-out: IC50 ranges for the selected cell strains. As for the experimental part: as §1, §4, §5

The nature of series [9]: Stability of TMZ-8-carboxylate in media of different pH (HPLC). The class given is physicochemical. As to conditions: 1% aqueous solution, sampled up to 32 months. As for the experimental part: The sodium hydroxide and citric acid were accurately weighed and respectively diluted with water to form the solution with the pH value of 7.5, 7.0, 6.5, 6.0 and 5.5. n-Hexyl TMZ-8-carboxylate was accurately weighed, and dissolved into said aqueous solutions with different pH values to form a series of 1% solutions of n-hexyl TMZ-8-carboxylate. Three sample solutions (20 ml) were taken out in each of above solutions and placed into 50 ml volumetric brown glass bottle, sealed and allowed to stand at room temperature. At 1, 4, 8, 12, 16, 20, 24, 28, 32 months after beginning, the solutions were sampled and determined the concentration of n-hexyl TMZ-8-carboxylate by HPLC, to calculate the average of three parallel solutions and plotted.

A short description of series [10]: Stability of TMZ-8-carboxylate derivatives in alcohols (HPLC). As to conditions: room temperature, sampled up to 32 months. The format is physicochemical. As for the experimental part:
n-hexyl TMZ-8-carboxylate was weighed accurately and prepared into 1% of solution by diluting respectively with methanol, ethanol, isopropanol and tert-butyl alcohol. Three sample solutions (20 ml) were taken out in each of above solutions and placed into 50 ml volumetric brown glass bottle, sealed and allowed to stand at room temperature. At time of 1, 4, 8, 12, 16, 20, 24, 28, 32 months after beginning, the solutions were sampled and determined the concentration of n-hexyl TMZ-8-carboxylate by HPLC, to calculate the average value of three parallel solutions and plotted.

Series [11] relates to xenotransplanted human melanoma MV3. The experiment in a line: Topical administration, growth of xenotransplanted human melanoma in MV3 nude mouse. The class given is in vivo, nude mouse of BALB/c-nu. As for the experimental part:
Hexyl TMZ-8-carboxylate was selected as the representative to investigate the influence of TMZ-8-carboxylate derivatives on the growth of xenotransplanted human melanoma in MV3 nude mouse.
Hexyl TMZ-8-carboxylate was dissolved in DMSO to obtain 50 mg/ml solution. Human melanoma was xenotransplanted to nude mouse of BALB/c-nu to allow it to grow. Until the tumor expanded to the volume of 100˜300 mm^3, all animals were divided into two groups in accordance with the size of tumor, eight mice per group.
Of these two groups, one was the treatment group in therapeutical treatment by spreading the solution of hexyl TMZ-8-carboxylate; another was the control group where the tumor grows naturally.
In the treatment group, the drug was administered by spreading drug at the position of tumor and surrounding area (2 cm×2 cm) twice a day (once on Saturday and Sunday). Every time, when the solution was dried, administration was repeated for 1 to 2 times. The daily average dose of hexyl TMZ-8-carboxylate administered for a mouse totally was about 20 mg.
The volume of tumor in mouse was measured twice a week, so as to observe and record their growth dynamically. Until the tumor of the control group grew up to a certain volume, all the mice were killed the tumors were stripped off and weighed, growth inhibition rate was calculated. Tumor proliferation (T/C(%)) was calculated using relative volume of tumor in two groups.
Tumor volume (TV) was calculated by the equation as follows: Length×width^2÷2
The relative tumor volume is calculated by the equation as follows: Vt/Vo
Wherein the Vo is the TV measured at the time when the animals were raised in separate cages, and […] is the TV measured each time after.
The t-test was used to compare the statistical difference between two groups in many indexes such as tumor weight, TV and RTV. The relative tumor proliferation rate (T/C(%))was used as the index of bioactivity for anti tumor, which was calculated as follows: […]
The effect was evaluated by statistical analysis. The effect was regarded as invalid when T/C (%) is more than 60, and as effective when T/C (%) is equal to or less than 60 and p<0.05.

Setting [12] is: Homo sapiens, MV-3, 96 h, read-out: IC50.
Setting [13] is: Homo sapiens, 96 h, read-out: IC50.
Where [14] appears, read: Homo sapiens, MCF7, 96 h, read-out: IC50.
The mark [15] stands for this setting: 20 mg/day/mouse spread on tumor, beginning of test, X ± SD.

Broadly, the IC50 is the concentration needed to halve the response being measured. Take `O=c1[nH]cc(F)c(=O)[nH]1` [Fluorouracil, reference compound]: the IC50 in [1] (setting [12]) is 0.427 µg/mL (≈ 3.28 µM).
For `Cn1nnc2c(C(=O)O)ncn2c1=O` [TMZ acid, reference compound], the IC50 is 14.625 µg/mL (≈ 74.9 µM) in series [1]; 18.525 µg/mL (≈ 94.9 µM) in [2]; >19.5 µg/mL in [3]; 14.911 µg/mL (≈ 76.4 µM) in series [4]; 16.957 µg/mL (≈ 86.9 µM) in [5]; >19.5 µg/mL in series [6].
For `Cn1nnc2c(C(N)=O)ncn2c1=O` [TMZ, Temozolomide], the “Permeation of artificial skin (silicon membrane), rat skin and human skin” value in series [7] is given as “inability to permeate”.
On to `CCCCOC(=O)c1ncn2c(=O)n(C)nnc12` [butyl TMZ-8-carboxylate, Butyl 3,4-dihydro-3-methyl-4-oxoimidazo[5,1-d]-1,2,3,5-tetrazine-8-carboxylate], for which the IC50 in [1] (setting [12]) was 7.57 µg/mL (≈ 30.1 µM); in [2] (setting [13]), 27.4 µg/mL (≈ 109 µM); in series [3] (setting [13]) it was 25.3 µg/mL (≈ 101 µM); in series [4] (setting [14]), 16.6 µg/mL (≈ 65.9 µM); in series [5] (setting [13]) it was 24.4 µg/mL (≈ 97 µM); in series [6] (setting [13]), > 19.5 µg/mL. The IC50 in [8] lay in the range of 10 to 30 µg/mL (≈ 39.8 to 119 µM).
In the case of `COC(=O)c1ncn2c(=O)n(C)nnc12` [methyl TMZ-8-carboxylate, Methyl 3,4-dihydro-3-methyl-4-oxoimidazo[5,1-d]-1,2,3,5-tetrazine-8-carboxylate], the IC50 in [1] (setting [12]) was 8.83 µg/mL (≈ 42.2 µM); in [2] (setting [13]), 28.4 µg/mL (≈ 136 µM); in series [3] (setting [13]) it was 27 µg/mL (≈ 129 µM); in series [4] (setting [14]), 17.7 µg/mL (≈ 84.5 µM); in [5] (setting [13]), 25.3 µg/mL (≈ 121 µM); in series [6] (setting [13]), > 19.5 µg/mL. The IC50 in series [8] was in the range of 10 to 30 µg/mL (≈ 47.8 to 143 µM).
In the case of `CCCCCCOC(=O)c1ncn2c(=O)n(C)nnc12` [n-hexyl TMZ-8-carboxylate, n-hexyl 3,4-dihydro-3-methyl-4-oxoimidazo[5,1-d]-1,2,3,5-tetrazine-8-carboxylate], the “Stability in acidic (pH<7.0) medium” value in series [9] (pH 6.5, 6.0 and 5.5, room temperature) was “keep relatively stable”. The “Stability in neutral (pH7.0) medium” value in series [9] (pH7.0, room temperature) was “rapidly decomposes”. The “Stability in weakly alkaline (pH7.5) medium” value in [9] (pH7.5, room temperature) was “rapidly decomposes”. In addition, in [10] (1% solution in ethanol), the Stability in ethanol result is “rapidly decomposes”. Moreover, the Stability in isopropanol entry in series [10] (1% solution in isopropanol) is listed as “keeps stable”. Also, in series [10] (1% solution in methanol), the Stability in methanol result was “rapidly decomposes”. Moreover, the “Stability in tert-butyl alcohol” value in [10] (1% solution in tert-butyl alcohol) is “keeps stable”. Further, the IC50 in series [1] (setting [12]) is 8.84 µg/mL (≈ 31.6 µM); in [4] (setting [14]), 20 µg/mL (≈ 71.6 µM); in series [6] (setting [13]), > 19.5 µg/mL; in series [8] it was 10 to 30 µg/mL (≈ 35.8 to 107 µM). For the same compound, the “Effect on the growth of carcinomas in the mice” value in series [11] (20 mg daily externally administered per mouse, human melanoma MV3) was “significant inhibiting effects”. In addition, the “Body weight(g) Beginning test” value in series [11] (setting [15]) worked out at 24.0 ± 1.48 g. The “Tumor volume (mm^3) Beginning test” value in series [11] (setting [15]) is 115 ± 36 mm^3. For the same compound, in series [11] (20 mg/day/mouse spread on tumor, end of test, X ± SD), the “Body weight(g) End test” value turned out to be 25.6 ± 3.64 g. The “Tumor volume (mm^3) End test” value in series [11] (20 mg/day/mouse spread on tumor, end of test, X ± SD, P < 0.05 vs control) was 635 ± 545.1* mm^3. The “Weight of tumor” value in [11] (20 mg/day/mouse topical, end of test, X ± SD) worked out at 0.45 ± 0.335 g. Further, in series [11] (growth inhibition rate from tumor weight, 20 mg/day/mouse topical), the “Inhibiting rate (%)” value was determined as 83.2%. Also, the “T/C(%)” value in [11] (relative tumor proliferation rate, 20 mg/day/mouse topical, effective if <= 60 and p<0.05) is given as 33.7%. Besides, the RTV in series [11] (relative tumor volume Vt/Vo, 20 mg/day/mouse topical) was 3.25 ± 1.85.
